Where two headings read alike, the source gives them in different places.
Key:
Assay in all cases: Test C pre-/postemergence greenhouse test, plant response rating 0-100
Assay type in all cases: in vivo
[1] = test system: Italian ryegrass (Lolium multiflorum); conditions: Lolium multiflorum; for pest or weed control at 62 g/ha: 62 g ai/ha; for pest or weed control at 125 g/ha: 125 g ai/ha; for pest or weed control at 250 g/ha: 250 g ai/ha
Description: (§1) Seeds of plant species selected from blackgrass (Alopecurus myosuroides), Italian ryegrass (Lolium multiflorum), winter wheat (Triticum aestivum), galium (catchweed bedstraw, Galium aparine), corn (Zea mays), large (Lg) crabgrass (Digitaria sanguinalis), giant foxtail (Setaria faberii), johnsongrass (Sorghum halepense), lambsquarters (Chenopodium album), morningglory (Ipomoea coccinea), yellow nutsedge (Cyperus esculentus), pigweed (Amaranthus retroflexus), ragweed (common ragweed, Ambrosia elatior), soybean (Glycine max), barnyardgrass (Echinochloa crus-galli), oilseed rape (Brassica napus), waterhemp (common waterhemp, Amaranthus rudis), and velvetleaf (Abutilon theophrasti) were planted into a blend of loam soil and sand and treated preemergence with test chemicals formulated in a non-phytotoxic solvent mixture which included a surfactant.
(§2) At the same time, plants selected from these crop and weed species and also winter barley (Hordeum vulgare), bermudagrass (Cynodon dactylon), downy bromegrass (Bromus tectorum), canarygrass (Phalaris minor), cocklebur (common cocklebur, Xanthium strumarium), woolly cupgrass (Eriochloa villosa), deadnettle (henbit deadnettle, Lamium amplexicaule), green foxtail (Setaria viridis), goosegrass (Eleusine indica), surinam grass (Brachiaria decumbens), windgrass (Apera spica-venti), chickweed (common chickweed, Stellaria media), kochia (Kochia scoparia), and wild oat (Avena fatua), were planted in pots containing Redi-Earth® planting medium (Scotts Company, 14111 Scottslawn Road, Marysville, Ohio 43041) comprising spaghnum peat moss, vermiculite, wetting agent and starter nutrients and treated with postemergence applications of test chemicals formulated in the same manner. Plants ranged in height from 2 to 18 cm (1- to 4-leaf stage) for postemergence treatments. Treated plants and controls were maintained in a greenhouse for 13 to 15 days, after which time all species were compared to controls and visually evaluated. Plant response ratings, summarized in Table C, are based on a scale of 0 to 100 where 0 is no effect and 100 is complete control. A dash (-) response means no test result.

corn (Zea mays) = conditions: Zea mays; for Corn plant response rating (crop injury, 0 = no effect, 100 = complete kill) at 250 g/ha: 250 g ai/ha
Description: as §1, §2

[2] = test system: galium (catchweed bedstraw, Galium aparine); conditions: Galium; for pest or weed control at 62 g/ha: 62 g ai/ha; for pest or weed control at 125 g/ha: 125 g ai/ha; for pest or weed control at 250 g/ha: 250 g ai/ha
Description: as §1, §2

[3] = test system: giant foxtail (Setaria faberii); conditions: Setaria faberi; for pest or weed control at 62 g/ha: 62 g ai/ha; for pest or weed control at 125 g/ha: 125 g ai/ha; for pest or weed control at 250 g/ha: 250 g ai/ha
Description: as §1, §2

[4] = test system: johnsongrass (Sorghum halepense); conditions: Sorghum halepense; for pest or weed control at 62 g/ha: 62 g ai/ha; for pest or weed control at 125 g/ha: 125 g ai/ha; for pest or weed control at 250 g/ha: 250 g ai/ha
Description: as §1, §2

[5] = test system: lambsquarters (Chenopodium album); conditions: Chenopodium album; for pest or weed control at 62 g/ha: 62 g ai/ha; for pest or weed control at 125 g/ha: 125 g ai/ha; for pest or weed control at 250 g/ha: 250 g ai/ha
Description: as §1, §2

[6] = test system: large (Lg) crabgrass (Digitaria sanguinalis); conditions: Digitaria sanguinalis, post-emergence, Postemergence, read-out: Plant response rating (0 to 100), Crabgrass, Large
Description: as §1, §2

[7] = post-emergence, Postemergence, read-out: Plant response rating (0 to 100), Ryegrass, Italian
[8] = post-emergence, Postemergence, scale 0 to 100
[9] = pre-emergence, Preemergence, read-out: Plant response rating, Ryegrass, Italian
[10] = pre-emergence, Preemergence, 500 g ai/ha
[11] = post-emergence, Postemergence, read-out: Plant response rating (0 to 100), Galium
[12] = pre-emergence, Preemergence, read-out: Plant response rating, Galium
[13] = post-emergence, Postemergence, read-out: Plant response rating (0 to 100), Foxtail, Giant
[14] = pre-emergence, Preemergence, read-out: Plant response rating, Foxtail, Giant
[15] = post-emergence, Postemergence, read-out: Plant response rating (0 to 100), Johnsongrass
[16] = pre-emergence, Preemergence, read-out: Plant response rating, Johnsongrass
[17] = post-emergence, Postemergence, read-out: Plant response rating (0 to 100), Lambsquarters
[18] = pre-emergence, Preemergence, read-out: Plant response rating, Lambsquarters

Cn1cc(C(=O)c2ccccc2)c(-c2cc(Cl)cc(Cl)c2)n1 [Compound 54, [3-(3,5-dichlorophenyl)-1-methyl-1H-pyrazol-4-yl]phenylmethanone]
30%: pest or weed control at 62 g/ha [5, 18]
5%: pest or weed control at 250 g/ha [2, 8] | pest or weed control at 500 g/ha [2, 10] | pest or weed control at 125 g/ha [3, 13] | pest or weed control at 250 g/ha [3, 8]
50%: pest or weed control at 62 g/ha [5, 17] | pest or weed control at 250 g/ha ([5]; pre-emergence, Preemergence)
10%: Corn plant response rating (crop injury, 0 = no effect, 100 = complete kill) at 250 g/ha (corn (Zea mays); pre-emergence, Preemergence) | Corn plant response rating (crop injury, 0 = no effect, 100 = complete kill) at 500 g/ha (corn (Zea mays); [10])
100%: pest or weed control at 500 g/ha [5, 10]
0%: pest or weed control at 62 g/ha [1, 7] | pest or weed control at 125 g/ha [1, 7] | pest or weed control at 250 g/ha [1, 8] | pest or weed control at 62 g/ha [1, 9] | pest or weed control at 125 g/ha [1, 9] | pest or weed control at 250 g/ha ([1]; pre-emergence, Preemergence) | pest or weed control at 500 g/ha [1, 10] | plant injury at 31 g/ha (corn (Zea mays); post-emergence, Postemergence, 31 g ai/ha) | plant injury at 62 g/ha (corn (Zea mays); post-emergence, Postemergence, 62 g ai/ha) | plant injury at 125 g/ha (corn (Zea mays); post-emergence, Postemergence, 125 g ai/ha) | Corn plant response rating (crop injury, 0 = no effect, 100 = complete kill) at 250 g/ha (corn (Zea mays); [8]) | Corn plant response rating (crop injury, 0 = no effect, 100 = complete kill) at 62 g/ha (corn (Zea mays); pre-emergence, Preemergence, 62 g ai/ha) | Corn plant response rating (crop injury, 0 = no effect, 100 = complete kill) at 125 g/ha (corn (Zea mays); pre-emergence, Preemergence, 125 g ai/ha) | pest or weed control at 31 g/ha ([2]; post-emergence, Postemergence, 31 g ai/ha, read-out: Plant response rating (0 to 100), Galium) | pest or weed control at 62 g/ha [2, 11] | pest or weed control at 125 g/ha [2, 11] | pest or weed control at 62 g/ha [2, 12] | pest or weed control at 125 g/ha [2, 12] | pest or weed control at 250 g/ha ([2]; pre-emergence, Preemergence) | pest or weed control at 31 g/ha ([3]; post-emergence, Postemergence, 31 g ai/ha, read-out: Plant response rating (0 to 100), Foxtail, Giant) | pest or weed control at 62 g/ha [3, 13] | pest or weed control at 62 g/ha [3, 14] | pest or weed control at 125 g/ha [3, 14] | pest or weed control at 250 g/ha ([3]; pre-emergence, Preemergence) | pest or weed control at 500 g/ha [3, 10] | pest or weed control at 62 g/ha [4, 15] | pest or weed control at 125 g/ha [4, 15] | pest or weed control at 250 g/ha [4, 8] | pest or weed control at 62 g/ha [4, 16] | pest or weed control at 125 g/ha [4, 16] | pest or weed control at 250 g/ha ([4]; pre-emergence, Preemergence) | pest or weed control at 500 g/ha [4, 10] | pest or weed control at 31 g/ha ([6]; 31 g ai/ha) | pest or weed control at 62 g/ha ([6]; 62 g ai/ha)
55%: pest or weed control at 125 g/ha [5, 17] | pest or weed control at 250 g/ha [5, 8]
40%: pest or weed control at 125 g/ha [5, 18]

Source: patent US10167262B2, “Herbicidal substituted 3-arylpyrazoles” (FMC CORPORATION, priority 2014, dated 2019)
